This note sets out measurements from patent US20050282743A1, “Molecular interactions in cells” (Arbor Vita Corporation, priority 2001, published 2005).

Where two headings read alike, the source gives them in different places. Peptide text beside a SMILES is read from it. * marks the point of attachment. Biotin = O=C1N[C@H]2[C@H](CS[C@H]2CCCCC(=O)*)N1

The target in experiment [1] is T1, PDZ-domain polypeptide (GST/PDZ fusion protein) (Homo sapiens, UniProt Q96JH8).
T1 construct: made in house; host or cells: E. coli (DH5alpha, BL21 or JM109)
T1 sequence (Q96JH8 1-1075): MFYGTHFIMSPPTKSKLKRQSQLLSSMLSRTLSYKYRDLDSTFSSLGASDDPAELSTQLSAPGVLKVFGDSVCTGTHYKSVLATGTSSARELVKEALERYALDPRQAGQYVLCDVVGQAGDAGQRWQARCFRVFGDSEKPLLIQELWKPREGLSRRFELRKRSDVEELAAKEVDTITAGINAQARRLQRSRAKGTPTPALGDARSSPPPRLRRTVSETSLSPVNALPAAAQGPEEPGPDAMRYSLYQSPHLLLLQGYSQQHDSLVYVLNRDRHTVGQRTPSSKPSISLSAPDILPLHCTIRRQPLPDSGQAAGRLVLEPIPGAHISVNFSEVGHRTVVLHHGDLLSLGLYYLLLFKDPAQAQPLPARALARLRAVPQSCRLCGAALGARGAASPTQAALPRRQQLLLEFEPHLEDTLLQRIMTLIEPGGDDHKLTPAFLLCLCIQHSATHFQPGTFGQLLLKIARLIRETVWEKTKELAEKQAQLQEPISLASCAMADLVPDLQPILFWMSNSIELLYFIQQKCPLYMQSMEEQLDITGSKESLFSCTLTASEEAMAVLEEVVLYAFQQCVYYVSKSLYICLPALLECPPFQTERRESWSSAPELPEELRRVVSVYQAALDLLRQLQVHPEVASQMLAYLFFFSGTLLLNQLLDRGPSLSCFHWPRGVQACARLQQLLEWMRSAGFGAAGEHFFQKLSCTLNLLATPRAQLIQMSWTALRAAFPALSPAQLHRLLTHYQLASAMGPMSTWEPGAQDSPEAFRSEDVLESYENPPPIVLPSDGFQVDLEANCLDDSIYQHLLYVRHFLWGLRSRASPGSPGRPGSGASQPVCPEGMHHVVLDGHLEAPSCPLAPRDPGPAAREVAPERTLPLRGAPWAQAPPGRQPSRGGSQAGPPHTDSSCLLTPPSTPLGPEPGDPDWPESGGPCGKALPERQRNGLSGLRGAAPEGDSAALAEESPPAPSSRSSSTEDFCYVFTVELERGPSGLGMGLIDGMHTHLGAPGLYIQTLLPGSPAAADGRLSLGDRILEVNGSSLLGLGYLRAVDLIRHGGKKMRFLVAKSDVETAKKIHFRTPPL
In words: Apparent affinity (Kd) by titration of PL peptide in the G assay. The experiment is classed as binding. The settings on record: PDZ FLJ 10324, PDZ Domain 1. The method, boiled down:
(§1)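 A fixed concentration of GST/PDZ fusion protein, 5 ug/ml by default, was mixed in solution with increasing labeled PL peptide (e.g. 0.1 uM-1 mM). Reaction times ranged from 10 minutes to 2 days at 4-37° C. Complexes were separated from free peptide and detected via the label as in the G assay, apparent affinity coming from the saturating concentration.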

Experiment [2] addresses T2, PDZ-domain polypeptide (GST/PDZ fusion protein) (Homo sapiens, UniProt Q92796).
T2 construct: made in house; host or cells: E. coli (DH5alpha, BL21 or JM109)
T2 sequence (Q92796 1-817): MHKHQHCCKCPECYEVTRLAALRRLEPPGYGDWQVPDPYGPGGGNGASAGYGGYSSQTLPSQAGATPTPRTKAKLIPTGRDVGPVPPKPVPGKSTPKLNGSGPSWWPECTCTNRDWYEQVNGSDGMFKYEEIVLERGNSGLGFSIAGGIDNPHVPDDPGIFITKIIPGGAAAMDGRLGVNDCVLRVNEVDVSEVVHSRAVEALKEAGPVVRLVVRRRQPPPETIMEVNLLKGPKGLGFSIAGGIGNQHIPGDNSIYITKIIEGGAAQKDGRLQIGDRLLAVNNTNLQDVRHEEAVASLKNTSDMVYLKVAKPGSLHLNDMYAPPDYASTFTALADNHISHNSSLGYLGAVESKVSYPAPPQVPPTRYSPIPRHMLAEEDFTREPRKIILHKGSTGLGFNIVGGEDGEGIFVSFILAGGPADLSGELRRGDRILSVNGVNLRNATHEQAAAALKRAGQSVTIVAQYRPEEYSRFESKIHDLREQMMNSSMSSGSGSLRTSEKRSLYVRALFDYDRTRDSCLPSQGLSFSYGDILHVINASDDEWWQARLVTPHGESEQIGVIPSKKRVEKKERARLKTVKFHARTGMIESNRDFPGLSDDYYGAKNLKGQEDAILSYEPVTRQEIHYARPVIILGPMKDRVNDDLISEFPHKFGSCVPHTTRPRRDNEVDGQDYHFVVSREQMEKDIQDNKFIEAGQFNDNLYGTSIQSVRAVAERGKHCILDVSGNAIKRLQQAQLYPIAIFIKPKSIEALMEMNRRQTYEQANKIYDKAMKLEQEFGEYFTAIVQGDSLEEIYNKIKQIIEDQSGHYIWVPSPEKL
The description is as above. The settings on record: PDZ NeDLG. The experiment is classed as binding. The procedure, abridged:
as §1

Where [3] appears, read: titration of the PL peptide, read-out: Peptide Optimal Conc (Kd, dissociation constant).

Regarding `CC(C)C[C@H](NC(=O)[C@H](Cc1c[nH]c2ccccc12)NC(=O)[C@H](Cc1c[nH]cn1)NC(=O)[C@H](CCCNC(=N)N)NC(=O)[C@H](CC(C)C)NC(=O)[C@@H](NC(=O)[C@H](Cc1ccccc1)NC(=O)[C@H](CCC(N)=O)NC(=O)[C@H](CCCNC(=N)N)NC(=O)[C@@H](NC(=O)[C@H](CCC(=O)O)NC(=O)CNC(=O)[C@H](CCCNC(=N)N)NC(=O)[C@H](CC(=O)O)NC(=O)[C@@H](NC(=O)[C@H](CC(C)C)NC(=O)[C@H](CCC(=O)O)NC(=O)[C@H](CCCNC(=N)N)NC(=O)CCCC[C@@H]1SC[C@@H]2NC(=O)N[C@@H]21)C(C)C)C(C)C)[C@@H](C)O)C(=O)N[C@@H](CCCCN)C(=O)N[C@H](C(=O)O)C(C)C` [Dopamine transporter (Na+-dependent)] (Biotin-RELVDRGEVRQFTLRHWLKV-OH; C-terminus assumed), in experiment [1] (read-out: Peptide Optimal Conc (Kd by titration of the PL peptide)), the Kd came to 300 nM. With `CC[C@H](C)[C@H](NC(=O)[C@H](Cc1ccc(O)cc1)NC(=O)[C@@H](NC(=O)[C@@H]1CCCN1C(=O)[C@H](CCC(N)=O)NC(=O)[C@H](CCC(=O)O)NC(=O)[C@H](CCC(N)=O)NC(=O)[C@H](C)NC(=O)[C@@H](NC(=O)[C@H](CC(C)C)NC(=O)[C@H](CC(C)C)NC(=O)[C@H](CCCNC(=N)N)NC(=O)[C@H](Cc1ccc(O)cc1)NC(=O)[C@H](CCSC)NC(=O)[C@H](C)NC(=O)[C@H](C)NC(=O)[C@@H]1CCCN1C(=O)[C@H](CCSC)NC(=O)[C@@H](NC(=O)[C@H](CCCCN)NC(=O)CCCC[C@@H]1SC[C@@H]2NC(=O)N[C@@H]21)[C@@H](C)O)[C@@H](C)O)C(C)C)C(=O)O` [MINT-1] (Biotin-KTMPAAMYRLLTAQEQPVYI-OH; C-terminus assumed), the Kd in experiment [1] (setting [3]) amounted to 1000 nM. As for `CC[C@H](C)[C@H](NC(=O)[C@H](C)NC(=O)[C@H](CC(C)C)NC(=O)[C@H](Cc1c[nH]c2ccccc12)NC(=O)[C@H](Cc1c[nH]cn1)NC(=O)[C@H](CCC(N)=O)NC(=O)[C@H](CC(C)C)NC(=O)[C@H](CCC(N)=O)NC(=O)[C@H](Cc1ccccc1)NC(=O)[C@H](CCC(N)=O)NC(=O)[C@H](CCCNC(=N)N)NC(=O)[C@@H](NC(=O)[C@H](CC(=O)O)NC(=O)[C@H](CCCNC(=N)N)NC(=O)[C@H](CCC(N)=O)NC(=O)[C@H](C)NC(=O)[C@@H](NC(=O)[C@H](CC(C)C)NC(=O)[C@H](Cc1c[nH]cn1)NC(=O)[C@H](Cc1c[nH]cn1)NC(=O)CCCC[C@@H]1SC[C@@H]2NC(=O)N[C@@H]21)C(C)C)[C@@H](C)CC)C(=O)O` [noradrenaline transporter] (Biotin-HHLVAQRDIRQFQLQHWLAI-OH; C-terminus assumed), the Kd in experiment [1] (Peptide Optimal Conc (Kd by titration of the PL peptide)) was 600 nM. Consider `CC[C@H](C)[C@H](NC(=O)[C@H](CCCCN)NC(=O)[C@@H](NC(=O)[C@H](CO)NC(=O)[C@@H]1CCCN1C(=O)[C@H](Cc1ccccc1)NC(=O)[C@@H](NC(=O)[C@@H](NC(=O)[C@H](CCCNC(=N)N)NC(=O)[C@H](CCC(=O)O)NC(=O)[C@H](CC(C)C)NC(=O)[C@H](CC(C)C)NC(=O)[C@H](CC(C)C)NC(=O)[C@@H](NC(=O)CNC(=O)[C@@H](NC(=O)CCCC[C@@H]1SC[C@@H]2NC(=O)N[C@@H]21)C(C)C)[C@@H](C)O)C(C)C)[C@@H](C)CC)C(C)C)C(=O)N[C@@H](C)C(=O)N[C@H](C(=O)N[C@@H](CC(C)C)C(=O)N[C@H](C(=O)O)C(C)C)[C@@H](C)O` [Adenovirus E4 Type9], for which the Kd was found to be 100 nM in experiment [1] (Protein Optimal Conc 5, read-out: Peptide Optimal Conc (Kd by titration of the PL peptide)) and 100 nM in experiment [2] (PDZ Domain 2, Protein Optimal Conc 5, read-out: Peptide Optimal Conc (Kd by titration of the PL peptide)). For the compound `CC[C@H](C)[C@H](NC(=O)[C@H](CO)NC(=O)[C@@H](NC(=O)[C@H](Cc1ccccc1)NC(=O)[C@H](CO)NC(=O)CCCC[C@@H]1SC[C@@H]2NC(=O)N[C@@H]21)[C@@H](C)O)C(=O)N[C@@H](CC(C)C)C(=O)N[C@H](C(=O)N[C@@H](CS)C(=O)N[C@@H](Cc1c[nH]cn1)C(=O)N[C@@H](CCC(N)=O)C(=O)N[C@@H](CCCNC(=N)N)C(=O)N[C@@H](CCCNC(=N)N)C(=O)N[C@H](C(=O)N[C@@H](CCC(N)=O)C(=O)N[C@@H](CCCNC(=N)N)C(=O)N[C@@H](CCCCN)C(=O)N[C@@H](CCC(=O)O)C(=O)N[C@H](C(=O)N[C@H](C(=O)N[C@@H](C)C(=O)O)C(C)C)[C@@H](C)O)[C@@H](C)O)[C@@H](C)O` [GluR5-2 (rat)], the Kd in experiment [2] (PDZ Domain 1, 2, titration of the PL peptide, read-out: Peptide Optimal Conc (Kd, dissociation constant)) came to 100 nM. For `CC(C)C[C@H](NC(=O)[C@H](C)NC(=O)[C@H](CO)NC(=O)CNC(=O)[C@@H](NC(=O)CCCC[C@@H]1SC[C@@H]2NC(=O)N[C@@H]21)[C@@H](C)O)C(=O)N[C@@H](CCC(N)=O)C(=O)N[C@@H](C)C(=O)N[C@@H](Cc1c[nH]c2ccccc12)C(=O)N[C@@H](CCCNC(=N)N)C(=O)N[C@@H](Cc1c[nH]cn1)C(=O)N[C@H](C(=O)N[C@@H](CO)C(=O)N[C@@H](CCCNC(=N)N)C(=O)N[C@@H](CCC(N)=O)C(=O)N[C@@H](C)C(=O)N[C@H](C(=O)N[C@@H](CCC(=O)O)C(=O)N[C@@H](CO)C(=O)N[C@H](C(=O)N[C@H](C(=O)O)C(C)C)[C@@H](C)O)[C@@H](C)O)[C@@H](C)O` [HPV E6 #66 (modified)] (Biotin-TGSALQAWRHTSRQATESTV-OH; C-terminus assumed), the Kd was 1000 nM in experiment [2] (PDZ Domain 1, 2, read-out: Peptide Optimal Conc (Kd by titration of the PL peptide)) and 3500 nM in experiment [2] (PDZ Domain 2, read-out: Peptide Optimal Conc (Kd by titration of the PL peptide)).

Turning to `CC[C@H](C)[C@H](NC(=O)[C@H](Cc1ccc(O)cc1)NC(=O)[C@H](CC(C)C)NC(=O)[C@H](CCC(N)=O)NC(=O)[C@H](Cc1c[nH]cn1)NC(=O)[C@H](CO)NC(=O)[C@H](C)NC(=O)[C@H](CC(C)C)NC(=O)[C@@H](NC(=O)[C@H](CC(=O)O)NC(=O)[C@H](CCSC)NC(=O)[C@H](Cc1ccccc1)NC(=O)[C@@H]1CCCN1C(=O)[C@H](CCCNC(=N)N)NC(=O)[C@@H](NC(=O)[C@H](CC(C)C)NC(=O)[C@H](CC(N)=O)NC(=O)[C@H](CC(=O)O)NC(=O)[C@@H](NC(=O)[C@H](CO)NC(=O)CCCC[C@@H]1SC[C@@H]2NC(=O)N[C@@H]21)[C@@H](C)O)C(C)C)[C@@H](C)O)C(=O)O` [presenilin-2] (Biotin-STDNLVRPFMDTLASHQLYI-OH; C-terminus assumed), in experiment [1] (setting [3]), the Kd stood at 1000 nM.
